# Assays:
# Assay in all cases: relative viability (nuclei count vs DMSO), 5 days (fraction); higher = more cells survive
# [1] = compound: O=S(=O)(c1ccccc1)N(CC(F)(F)F)c1ccc(C(O)(C(F)(F)F)C(F)(F)F)cc1 + CC(=O)Nc1cccc(-n2c(=O)n(C3CC3)c(=O)c3c(Nc4ccc(I)cc4F)n(C)c(=O)c(C)c32)c1 [Trametinib] (partner 0.02 µM)
# Method in brief: (§1)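 Relative viability divides the nuclei count in treated wells by that in vehicle wells. Lung cancer cell lines were seeded in 1536-well plates, dosed by pin tool the next day, and fixed and stained after 5 days in one step with final 0.05% Triton X-100, 1% formaldehyde and 1 ug/ml Hoechst. Dosing was a single drug or a fixed anchor-drug dose plus five library-drug doses (not always all listed) in √10 steps, and values are medians of duplicate plates imaged at 4×.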
# [2] = compound: O=S(=O)(c1ccccc1)N(CC(F)(F)F)c1ccc(C(O)(C(F)(F)F)C(F)(F)F)cc1 + N=C(N)NC(=N)NCCc1ccccc1 [Phenformin] (partner 250 µM)
# Method in brief: as §1
# [3] = compound: O=S(=O)(c1ccccc1)N(CC(F)(F)F)c1ccc(C(O)(C(F)(F)F)C(F)(F)F)cc1 + COc1cc2c(Oc3ccc(NC(=O)C4(C(=O)Nc5ccc(F)cc5)CC4)cc3F)ccnc2cc1OCCCN1CCOCC1 [Foretinib] (partner 0.25 µM)
# Method in brief: as §1
# RO-3306 + Navitoclax = compound: C1=CC2=C(C=CC(=C2)C=C3C(=O)NC(=NCC4=CC=CS4)S3)N=C1 [RO-3306] + CC1(C)CCC(c2ccc(Cl)cc2)=C(CN2CCN(c3ccc(C(=O)NS(=O)(=O)c4ccc(N[C@H](CCN5CCOCC5)CSc5ccccc5)c(S(=O)(=O)C(F)(F)F)c4)cc3)CC2)C1 [Navitoclax] (partner 0.5 µM)
# Method in brief: as §1
# RO-3306 + Lapatinib = compound: C1=CC2=C(C=CC(=C2)C=C3C(=O)NC(=NCC4=CC=CS4)S3)N=C1 [RO-3306] + CS(=O)(=O)CCNCc1ccc(-c2ccc3ncnc(Nc4ccc(OCc5cccc(F)c5)c(Cl)c4)c3c2)o1 [Lapatinib] (partner 2 µM)
# Method in brief: as §1
Cell Line,relative viability ([1]; first compound 0.8 µM),relative viability ([1]; first compound 2.53 µM),relative viability ([1]; first compound 8 µM),relative viability ([2]; first compound 0.8 µM),relative viability ([2]; first compound 2.53 µM),relative viability ([2]; first compound 8 µM),relative viability ([3]; first compound 0.8 µM),relative viability ([3]; first compound 2.53 µM),relative viability ([3]; first compound 8 µM),relative viability (RO-3306 + Navitoclax; first compound 0.01 µM),relative viability (RO-3306 + Navitoclax; first compound 0.03162 µM),relative viability (RO-3306 + Navitoclax; first compound 0.1 µM),relative viability (RO-3306 + Navitoclax; first compound 0.3162 µM),relative viability (RO-3306 + Navitoclax; first compound 1 µM),relative viability (RO-3306 + Lapatinib; first compound 0.01 µM),relative viability (RO-3306 + Lapatinib; first compound 0.03162 µM),relative viability (RO-3306 + Lapatinib; first compound 0.1 µM),relative viability (RO-3306 + Lapatinib; first compound 0.3162 µM),relative viability (RO-3306 + Lapatinib; first compound 1 µM)
NCI-H3122,0.166,0.143,0.221,0.345,0.334,0.338,0.891,0.792,1.05,1.03,1.03,0.983,1.05,1.07,1.1,1,1.02,0.997,0.827
PC-3 [JPC-3],,0.678,0.678,0.441,0.551,0.501,1.1,0.983,0.951,1.04,0.697,0.816,0.805,0.745,0.469,0.445,0.389,0.439,0.435
PC-14,0.705,0.554,0.477,0.309,0.357,0.447,1.11,1.09,0.988,1.11,,1.06,1.19,1.18,0.326,0.395,0.312,0.317,0.295
RERF-LC-KJ,0.812,0.721,0.663,0.449,0.364,0.408,0.816,0.746,0.751,1.36,1.03,0.815,0.684,0.997,0.861,0.842,0.828,0.864,0.702
SK-LU-1,0.466,0.537,0.491,0.546,0.489,0.526,0.716,0.857,0.695,1.08,0.837,0.774,0.926,0.832,1.07,0.812,0.842,0.902,0.797
SK-MES-1,0.546,0.573,0.59,0.779,0.745,0.65,0.723,0.728,0.767,1.36,1.25,1.22,1.36,1.2,0.449,0.472,0.444,0.505,0.471
SW 1573,0.638,0.537,0.472,0.47,0.37,0.401,0.954,0.898,1.04,0.838,,0.892,0.886,0.966,1.11,1.01,1.17,1.12,0.947

# From the supplement of paper PMC10307832
